The target of this experiment is T1, human 5-hydroxytryptamine-2C (h5-HT2C) receptor (Homo sapiens, UniProt P28335).
T1 construct: expressed in transfected cells; host or cells: CHO (Chinese Hamster Ovary) cells; membranes
T1 sequence (P28335 33-458): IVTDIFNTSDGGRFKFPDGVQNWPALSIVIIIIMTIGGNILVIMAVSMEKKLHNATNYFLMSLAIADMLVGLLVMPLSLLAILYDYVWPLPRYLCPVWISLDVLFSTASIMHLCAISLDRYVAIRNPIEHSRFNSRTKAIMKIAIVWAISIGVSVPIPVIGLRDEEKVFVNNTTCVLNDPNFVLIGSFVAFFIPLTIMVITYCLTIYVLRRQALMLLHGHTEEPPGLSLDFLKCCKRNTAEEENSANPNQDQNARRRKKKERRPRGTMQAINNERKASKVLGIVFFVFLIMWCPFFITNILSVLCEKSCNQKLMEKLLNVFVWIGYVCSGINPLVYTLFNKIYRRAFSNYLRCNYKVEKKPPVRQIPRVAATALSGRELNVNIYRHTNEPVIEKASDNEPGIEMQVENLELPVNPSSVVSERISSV
The experiment can be described thus: [125I]DOI binding to membranes of CHO cells expressing the human 5-HT2C receptor. The settings on record: [125I]DOI radioligand, CHO cell membranes, room temperature 60 min; read-out: 5-HT2C Affinity Ki.
A word on the Ki: it is the equilibrium dissociation constant of an inhibitor or competing ligand from its target. In the case of `Cc1cccc(C)c1-c1cccc2c1CC(CN)O2` (racemic) [Example 125, (±)-1-[4-(2,6-dimethylphenyl)-2,3-dihydro-1-benzofuran-2-yl]methanamine], the Ki was found to be 276 nM. The result for `NCC1Cc2cc(Cl)cc(-c3ccccc3)c2O1` (racemic) [Example 84, (±)-1-(5-chloro-7-phenyl-2,3-dihydro-1-benzofuran-2-yl)methanamine] reads 11 nM; that for `Cc1ccc(-c2cc(C(F)(F)F)cc3c2OC(CN)C3)cc1` (racemic) [Example 323, (±)-{[5-(trifluoromethyl)-7-(4-methylphenyl)-2,3-dihydro-1-benzofuran-2-yl]methyl}amine], 161 nM. The result for `CNCC1Cc2cc(-c3ccccc3C(F)(F)F)cc(F)c2O1` (racemic) [Example 531, (±)-{7-fluoro-5-[2-(trifluoromethyl)phenyl]-2,3-dihydro-1-benzofuran-2-yl}methyl)methylamine] reads 409 nM; that for `CNCC1Cc2cc(-c3ccccc3)cc(-c3cccc(Cl)c3)c2O1` (racemic) [Example 506, (±)-{[7-(3-chlorophenyl)-5-phenyl-2,3-dihydro-1-benzofuran-2-yl]methyl}methylamine], 1600 nM; that for `NCC1Cc2c(cccc2-c2ccccc2C(F)(F)F)O1` (single isomer, unassigned; (-)) [Example 123, (−)-1-{4-[2-(trifluoromethyl)phenyl]-2,3-dihydro-1-benzofuran-2-yl}methanamine], 207 nM. For the compound `NCC1Cc2cccc(CCc3ccccc3)c2O1` (racemic) [Example 120, (±)-1-[7-(2-phenylethyl)-2,3-dihydro-1-benzofuran-2-yl]methanamine], the Ki is 128 nM. Take `COc1ccccc1-c1cc(F)c2c(c1)CC(CN)O2` (racemic) [Example 379, (±)-{[7-fluoro-5-(2-methoxyphenyl)-2,3-dihydro-1-benzofuran-2-yl]methyl}amine]: the Ki amounted to 453 nM. Take `Cc1ccc(-c2cc(F)c3c(c2)CC(CN)O3)cc1` (racemic) [Example 385, (±)-{[7-fluoro-5-(4-methylphenyl)-2,3-dihydro-1-benzofuran-2-yl]methyl}amine]: the Ki is 1350 nM. The figure for `CNCC1Cc2cc(-c3ccccc3)cc(-c3ccc(F)cc3F)c2O1` (racemic) [Example 517, (±)-{[7-(2,4-difluorophenyl)-5-phenyl-2,3-dihydro-1-benzofuran-2-yl]methyl}methylamine] is 2140 nM; for `NCC1Cc2cc(-c3ccccc3C(F)(F)F)cc(F)c2O1` (racemic) [Example 378, (±)-({7-fluoro-5-[2-(trifluoromethyl)phenyl]-2,3-dihydro-1-benzofuran-2-yl}methyl)amine] it is 201 nM. The figure for `Cc1ccc(-c2cc(-c3ccccc3)cc3c2OC(CN)C3)cc1` (racemic) [Example 353, (±)-{[7-(4-methylphenyl)-5-phenyl-2,3-dihydro-1-benzofuran-2-yl]methyl}amine] is 845 nM; for `NCC1Cc2cccc(Nc3ccccc3)c2O1` (racemic) [Example 173, (±)-N-[2-(aminomethyl)-2,3-dihydro-1-benzofuran-7-yl]-N-phenylamine] it is 326 nM; for `COc1cccc(-c2cccc3c2OC(CN)C3)c1OC` (single isomer, unassigned; (+)) [Example 157] it is 58 nM.

Take `NCC1Cc2cccc(-c3cccc(C(F)(F)F)c3)c2O1` (single isomer, unassigned; (-)) [Example 135, (−)-1-{7-[3-(trifluoromethyl)phenyl]-2,3-dihydro-1-benzofuran-2-yl}methanamine]: the Ki was 131 nM. The figure for `CNCC1Cc2cc(C(F)(F)F)cc(-c3cc(C(F)(F)F)cc(C(F)(F)F)c3)c2O1` (racemic) [Example 527, (±)-{[7-[3,5-bis(trifluoromethyl)phenyl]-5-(trifluoromethyl)-2,3-dihydro-1-benzofuran-2-yl]methyl}methylamine] is 4740 nM; for `NCC1Cc2cc(-c3cccc(C(F)(F)F)c3)cc(F)c2O1` (racemic) [Example 383, (±)-({7-fluoro-5-[3-(trifluoromethyl)phenyl]-2,3-dihydro-1-benzofuran-2-yl}methyl)amine] it is 1760 nM; for `NCC1Cc2cccc(-c3ccccc3F)c2O1` (single isomer, unassigned; (-)) [Example 52, (−)-1-[7-(2-fluorophenyl)-2,3-dihydro-1-benzofuran-2-yl]methanamine] it is 13 nM. The figure for `NCC1Cc2cc(-c3ccccc3)cc(-c3ccccc3F)c2O1` (racemic) [Example 348, (±)-{[7-(2-fluorophenyl)-5-phenyl-2,3-dihydro-1-benzofuran-2-yl]methyl}amine] is 529 nM; for `CNCC1Cc2cc(-c3ccc(C)cc3)cc(F)c2O1` (racemic) [Example 538, (±)-{7-fluoro-5-[4-methylphenyl]-2,3-dihydro-1-benzofuran-2-yl}methyl)methylamine] it is 380 nM. The result for `Cc1cc2c(c(-c3c(Cl)cccc3Cl)c1)OC(CN)C2` (single isomer, unassigned; (-)) [Example 303, (−)-{[7-(2,6-dichlorophenyl)-5-methyl-2,3-dihydro-1-benzofuran-2-yl]methyl}amine] reads 0.2 nM; that for `CNCC1Cc2cc(-c3cccc(OC)c3)cc(F)c2O1` (racemic) [Example 537, (±)-{7-fluoro-5-[3-methoxyphenyl]-2,3-dihydro-1-benzofuran-2-yl}methyl)methylamine], 1690 nM.

`NCC1Cc2cccc(Nc3ccc(C(F)(F)F)cc3)c2O1` (racemic) [Example 177, (±)-N-[2-(aminomethyl)-2,3-dihydro-1-benzofuran-7-yl]-N-[4-(trifluoromethyl)phenyl]amine]: the Ki came out at 353 nM. The result for `Cc1cc(Cl)ccc1-c1cc(F)cc2c1O[C@@H](CN)C2` [Example 549, {[(2R)-7-(4-chloro-2-methylphenyl)-5-fluoro-2,3-dihydro-1-benzofuran-2-yl]methyl}amine] reads 3.1 nM; that for `CC(C)(C)/C=C/c1cccc2c1OC(CN)C2` (racemic) [Example 117, (±)-1-{7-[(1E)-3,3-dimethylbut-1-enyl]-2,3-dihydro-1-benzofuran-2-yl}methanamine], 263 nM; that for `NCC1Cc2ccc(-c3ccccc3)cc2O1` (racemic) [Example 31, (±)-(6-phenyl-2,3-dihydro-1-benzofuran-2-yl)methanamine], 1370 nM.

Regarding `NCC1Cc2cccc(-c3ccsc3)c2O1` (single isomer, unassigned; (-)) [Example 46, (−)-1-(7-thien-3-yl-2,3-dihydro-1-benzofuran-2-yl)methanamine], the Ki came to 54 nM.

Regarding `Cc1ccccc1-c1c(F)ccc2c1OC(CN)C2` (single isomer, unassigned; (+)) [Example 396, (+)-{[6-fluoro-7-(2-methylphenyl)-2,3-dihydro-1-benzofuran-2-yl]methyl}amine], the Ki turned out to be 0.3 nM. On to `CC1(CN)Cc2cc(Cl)cc(-c3ccccc3)c2O1` (racemic) [Example 112, (±)-1-(5-chloro-2-methyl-7-phenyl-2,3-dihydro-1-benzofuran-2-yl)methanamine], for which the Ki was 55 nM.

As to `N#Cc1ccc(-c2cc(C(F)(F)F)cc3c2OC(CN)C3)cc1` (racemic) [Example 340, (±)-4-[2-(aminomethyl)-5-(trifluoromethyl)-2,3-dihydro-1-benzofuran-7-yl]benzonitrile], the Ki is 88 nM. The result for `CCc1cc2c(c(-c3ccccc3C)c1)OC(CN)C2` (racemic) [Example 305, (±)-{[5-ethyl-7-(2-methylphenyl)-2,3-dihydro-1-benzofuran-2-yl]methyl}amine] reads 1.1 nM; that for `NCC1Cc2cc(-c3ccc(F)cc3)cc(F)c2O1` (racemic) [Example 387, (±)-{[7-fluoro-5-(4-fluorophenyl)-2,3-dihydro-1-benzofuran-2-yl]methyl}amine], 1550 nM; that for `CNCC1Cc2cc(C(F)(F)F)cc(-c3ccc(F)c(F)c3)c2O1` (racemic) [Example 522, (±)-N-methyl-1-[7-(3,4-difluorophenyl)-5-(trifluoromethyl)-2,3-dihydro-1-benzofuran-2-yl]methanamine], 474 nM. The figure for `COc1ccc(-c2cc(F)c3c(c2)CC(CN)O3)cc1` (racemic) [Example 389, (±)-{[7-fluoro-5-(4-methoxyphenyl)-2,3-dihydro-1-benzofuran-2-yl]methyl}amine] is 1620 nM; for `CNCC1Cc2cc(-c3cccc(F)c3)cc(F)c2O1` (racemic) [Example 535, (±)-{[7-fluoro-5-(3-fluorophenyl)-2,3-dihydro-1-benzofuran-2-yl]methyl}methylamine] it is 1090 nM; for `NCC1Cc2cccc(-c3cccnc3)c2O1` (single isomer, unassigned; (-)) [Example 172, (−)-{[7-pyridin-3-yl-2,3-dihydro-1-benzofuran-2-yl]methyl}amine] it is 185 nM.

As to `CNCC1Cc2cc(OC)cc(-c3cc(Cl)ccc3OC)c2O1` (racemic) [Example 502, (±)-{[7-(5-chloro-2-methoxyphenyl)-5-methoxy-2,3-dihydro-1-benzofuran-2-yl]methyl}methylamine], the Ki stood at 60 nM.

The values are drawn from US7435837B2, “Dihydrobenzofuranyl alkanamine derivatives and methods for using same” (Wyeth, priority 2003, dated 2008).
